Data as given in US10391173B2, “Anti-ar agent and radiation therapy for androgen receptor positive cancer” (The Cleveland Clinic Foundation, priority 2016, dated 2019).

What was measured:
[1] = tested on: C4-2 prostate cancer cells; conditions: AR-positive cells; 2 Gy
Method: (a) (Top) Cells were cultured in steroid-deprived media −/+ DHT for 24 hours and then treated with IR: mock (ϕ), 4 Gy, or 6 Gy. Cells were then supplemented with hormone-proficient media at 48 hours post-IR. […] (Bottom) Cells were cultured in hormone-proficient media for 24 hours without or with enzalutamide (ENZ) and then treated with IR; mock (ϕ) or 4 Gy. Error bars represent normalized s.e.m of at least three experiments. […] Error bars represent normalized s.e.m of at least three experiments and the Student's t-test was used for statistical analysis. *, P<0.05. […] Error bars represent s.e.m of at least three experiments and the Student's t-test was used for statistical analysis. *, P<0.05. (d) Cells were cultured in hormone-proficient (FBS) media for 24 hours −/+ ENZ and then treated with IR: mock (ϕ 3 Gy (HMC18 and MDAMB453), or 2 Gy (C4-2). Cells were cultured in steroid-deprived media for 48 hours, treated −/+ DHT for 24 hours, and then treated with IR: mock (ϕ), 3 Gy (HMC18 and MDAMB453), or 2 Gy (C4-2). γH2AX, HDAC1, and actin levels were measured at the indicated time points. Relative intensity of γH2AX was calculated by ImageJ64. (e) MDAMB453 cells were cultured in steroid-replete, steroid-deficient, or steroid-deficient with 1 nM DHT for 24 hours, then treated with irradiation. Cells were harvested and expression of γDNAPKcs was analyzed. […]

MDAMB453 cells [2] = conditions: steroid-deprived media supplemented with 1 nM DHT for 24 hours
Method: (d) Cells were cultured in hormone-proficient (FBS) media for 24 hours −/+ ENZ and then treated with IR: mock (ϕ 3 Gy (HMC18 and MDAMB453), or 2 Gy (C4-2). Cells were cultured in steroid-deprived media for 48 hours, treated −/+ DHT for 24 hours, and then treated with IR: mock (ϕ), 3 Gy (HMC18 and MDAMB453), or 2 Gy (C4-2). γH2AX, HDAC1, and actin levels were measured at the indicated time points. Relative intensity of γH2AX was calculated by ImageJ64. (e) MDAMB453 cells were cultured in steroid-replete, steroid-deficient, or steroid-deficient with 1 nM DHT for 24 hours, then treated with irradiation. Cells were harvested and expression of γDNAPKcs was analyzed.
Whole cell lysates were prepared using M-PER lysis buffer and clarified by centrifugation. Proteins were separated by SDS-PAGE and transferred onto 0.45 μM nitrocellulose membranes (Maine Manufacturing; Sanford, Me.). After primary antibody incubation for 1-2 hours at room temperature, washings, and incubation with secondary antibodies, blots were developed with a chemoluminescence system (Amersham/GE Healthcare). For γH2AX measurements, proteins were transferred onto 0.2 μM nitrocellulose (Bio-Rad).
The phosphorylation of DNAPKcs on Ser2056 was examined, which is indicative of activated DNAPKcs, in MDAMB453 cells.

MDAMB453 cells [3] = test: γH2AX formation and resolution kinetics (Western blot); assay type: cell-based, human; conditions: 3 Gy; effect persisted at 24 hours
[4] = tested on: MCF7, BT474, CAMA1, HCC202, MDAMB453, HMC18 cells; test: Growth survival assay after IR across several breast cancer cell lines; assay type: cell-based, human; conditions: only in cell lines that expressed AR, independent of ER and ErbB2 activity
Method: (a) (Top) Cells were cultured in steroid-deprived media −/+ DHT for 24 hours and then treated with IR: mock (ϕ), 4 Gy, or 6 Gy. Cells were then supplemented with hormone-proficient media at 48 hours post-IR. Cell number was determined on day 14-21. (Bottom) Cells were cultured in hormone-proficient media for 24 hours without or with enzalutamide (ENZ) and then treated with IR; mock (ϕ) or 4 Gy. Error bars represent normalized s.e.m of at least three experiments. (b) MCF7, BT474, CAMA1, HCC202, and MDAMB453 cells were treated with ENZ, ENZ+IR, DHT, or DHT+IR as in (a). HMC18 cells were treated similarly but were profiled by clonogenic survival assays. […]
(§2) Cells were plated using a Multidrop Combi liquid handler (Thermo Fisher) in at least quadruplicates for each time point at three cell densities (range 25-225 cells per well) in a white 384-well plate (Corning, N.Y.). […] Relative luminescence units were measured using an Envision multilabel plate reader (Perkin Elmer) with a measurement time of 0.1 seconds. Luminescence signal is proportional to the amount of ATP present. […] The luminescence signal was plotted as a function of cell density and a cell density within the linear range for luminescence (or growth) was selected to generate integral survival for each cell line. […]

MDAMB453 cells [5] = test: Neutral comet assay; assay type: cell-based, human; conditions: pretreated 24 hours prior to 15 Gy of irradiation; ENZ 20 μM
Method: (§1) Single-cell gel electrophoresis was conducted in alkaline or neutral buffer according to the manufacturer's instructions, Trevigen (Gaithersburg, Md.). Slides were blinded and enumerated by a single user.

MDAMB453 cells [6] = test: Growth survival assay after IR with DHT or ENZ pretreatment; assay type: cell-based, human
Method: (a) (Top) Cells were cultured in steroid-deprived media −/+ DHT for 24 hours and then treated with IR: mock (ϕ), 4 Gy, or 6 Gy. Cells were then supplemented with hormone-proficient media at 48 hours post-IR. Cell number was determined on day 14-21. (Bottom) Cells were cultured in hormone-proficient media for 24 hours without or with enzalutamide (ENZ) and then treated with IR; mock (ϕ) or 4 Gy. Error bars represent normalized s.e.m of at least three experiments. (b) MCF7, BT474, CAMA1, HCC202, and MDAMB453 cells were treated with ENZ, ENZ+IR, DHT, or DHT+IR as in (a). […] Error bars represent normalized s.e.m of at least three experiments and the Student's t-test was used for statistical analysis. *, P<0.05. […]
as §2

BT474 cells = test: Neutral comet assay; assay type: cell-based, human; conditions: irradiated (10 Gy) after 24 hours of treatment with ENZ (20 μM)
Method: FIG. 16: AR regulates DNA damage and repair in AR, ER positive cells.
as §1

[7] = tested on: MDAMB453 orthotopic xenografts; test: MDAMB453 orthotopic xenograft study
Method: (g) MDAMB453 cells were orthotopically injected into the mammary gland of NSG mice and block randomized into one of four treatment arms as shown. Tumor volume was measured daily. Error bars represent normalized s.e.m of at least seven mice in each treatment arm. *, P<0.05 compared with all other treatment conditions based on ANOVA and Tukey Contrasts. **, P<0.05 for interaction based on two-way ANOVA. […] This cohort received ENZ at 25 mg kg^−1. (i) Average weight for each arm in both cohorts was measured weekly. Data are expressed as the means±s.e. of at least seven mice in each treatment arm.
Female NSG mice, 6-8 weeks of age, were obtained from the Cleveland Clinic Biological Resources Unit facility. All mouse studies were conducted under a protocol approved by the Cleveland Clinic Institutional Animal Care and Use Committee MDAMB453 cells were resuspended in serum free media and injected into the inguinal mammary gland. Once tumors reached 200 mm^3, mice were block randomized and assigned to vehicle, enzalutamide, vehicle plus radiotherapy, or enzalutamide plus radiotherapy. Two cohorts consisting of these four arms underwent treatment. Vehicle consisted of a volume of 5 mL per kg of PEG-400 solution containing 1.5%/0 of DMSO for cohort 1 and 2.5% DMSO for cohort 2 via oral gavage daily. Cohort 1 received enzalutamide at 15 mg kg^−1 and cohort 2 received enzaluatmide at 25 mg kg^−1. Radiotherapy was delivered to a dose of 1.5 Gy in three fractions once tumor size reached 250 mm^3. Treatment was not blinded to the investigator. Tumor volume was measured daily. Mice were sacrificed once their tumors reached an approximate size of 1,000 mm^3 or at treatment days 21-28. The significance of the difference between treatment groups was assessed by one-way and the interaction between drug and radiation was measured by two-way ANOVA.

HMC18 cells = test: γH2AX formation and resolution kinetics (Western blot); assay type: cell-based, human; conditions: AR-negative cells; 3 Gy

C[C@]12CCC(=O)C[C@@H]1CC[C@@H]1[C@@H]2CC[C@]2(C)[C@@H](O)CC[C@@H]12 [DHT, Dihydrotestosterone]
γH2AX resolution [1]: hastened γH2AX resolution
γDNAPKcs levels following irradiation (MDAMB453 cells [2]): maintained γDNAPKcs at similar levels to those cells grown in the steroid-replete media
Levels of γH2AX after irradiation (MDAMB453 cells [3]): decreased
Protection or sensitization to radiation [4]: protection
DNA damage (double-strand breaks) (MDAMB453 cells [5]): decreased
Cell growth after radiation (MDAMB453 cells [6]; DHT re-supplementation in steroid-deprived media before radiation, IR 4 or 6 Gy): dose dependent rescue of cell growth

CNC(=O)c1ccc(N2C(=S)N(c3ccc(C#N)c(C(F)(F)F)c3)C(=O)C2(C)C)cc1F [ENZ, enzalutamide]
Levels of γH2AX after irradiation (MDAMB453 cells [3]): increased shortly after irradiation
Double-strand breaks (BT474 cells): increased double-strand breaks
Protection or sensitization to radiation [4]: sensitization
DNA damage (double-strand breaks) (MDAMB453 cells [5]): increased DNA damage
Tumor growth, ENZ alone ([7]; 15 mg kg^−1, used alone): no effects on tumor growth
Tumor suppression, interaction with radiotherapy ([7]; 15 mg kg^−1 plus radiotherapy): interactive tumor suppression with radiotherapy
Tumor growth, ENZ ([7]; 25 mg kg^−1): Suppression of tumor growth
Body weight loss during the course of treatment ([7]; ENZ 25 mg kg^−1 and radiation): ~10%
Tumor growth, combination with ionizing radiation ([7]; ENZ at 15 mg kg^−1 or 25 mg kg^−1 plus ionizing radiation): more effective suppression of tumor growth than either modality alone
Cell number after radiation (MDAMB453 cells [6]; hormone-proficient media, ENZ 24 hours before IR 4 Gy, compared to vehicle): decreased cell number compared to vehicle alone
Kinetics of γH2AX formation and resolution (HMC18 cells): unaffected
